Test results from PubChem BioAssay AID1963836 (Molecular Pharmacology Branch, DTP, NCI, 2024).

System: 857933-349-R-J2-PDC complex spheroid viability
Assay: Anticancer human tumor 857933-349-R-J2-PDC patient-derived colon adenocarcinoma cell line growth inhibition [POLQ]
Conditions: for IC50: curve of first compound; for viability, T/C: stronger effect = lower value
Procedure, shortened: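 Three-cell-type spheroids modelling solid tumor plus stroma served as the readout system; POL inhibitors were tested individually and in combination, concentration ranges set by clinical Cmax where known.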
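Note: spheroids exposed to compounds for seven days before readout.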

In the case of `COc1cccc2c1C(=O)c1c(O)c3c(c(O)c1C2=O)CC(O)(C(=O)CO)CC3OC1CC(N)C(O)C(C)O1` (configuration not stated) + COC1C(OC(N)=O)C(O)C(Oc2ccc3c(O)c(NC(=O)c4ccc(O)c(CC=C(C)C)c4)c(=O)oc3c2C)OC1(C)C, the IC50 (second compound 0.0316 µM) is reported as 0.334 µM, the IC50 (second compound 0.1 µM) is reported as 0.216 µM and the IC50 (second compound 0.316 µM) is reported as 0.326 µM. The IC50 (second compound 1 µM) was 0.226 µM, the IC50 (second compound 3.16 µM) was 0.32 µM and the IC50 (second compound 10 µM) was 0.263 µM. For the same compound, the viability, T/C (second compound 0.0316 µM, first compound 0.0316 µM) was 73.1%, the viability, T/C (second compound 0.0316 µM, first compound 0.1 µM) was 80.2% and the viability, T/C (second compound 0.0316 µM, first compound 0.316 µM) was 51.4%. For the same compound, the viability, T/C (second compound 0.0316 µM, first compound 1 µM) was 8.39%, the viability, T/C (second compound 0.0316 µM, first compound 3.16 µM) was 0.35% and the viability, T/C (second compound 0.0316 µM, first compound 10 µM) was 0.47%. It also gave a viability, T/C (second compound 0.1 µM, first compound 0.0316 µM) of 64.2%, a viability, T/C (second compound 0.1 µM, first compound 0.1 µM) of 70.5% and a viability, T/C (second compound 0.1 µM, first compound 0.316 µM) of 41.3%. It also gave a viability, T/C (second compound 0.1 µM, first compound 1 µM) of 5.48%, a viability, T/C (second compound 0.1 µM, first compound 3.16 µM) of 0.39% and a viability, T/C (second compound 0.1 µM, first compound 10 µM) of 0.29%. The viability, T/C (second compound 0.316 µM, first compound 0.0316 µM) was 79.8%, the viability, T/C (second compound 0.316 µM, first compound 0.1 µM) was 76.2% and the viability, T/C (second compound 0.316 µM, first compound 0.316 µM) was 51.3%. The viability, T/C (second compound 0.316 µM, first compound 1 µM) was 8.79%, the viability, T/C (second compound 0.316 µM, first compound 3.16 µM) was 0.37% and the viability, T/C (second compound 0.316 µM, first compound 10 µM) was 0.44%. The viability, T/C (second compound 1 µM, first compound 0.0316 µM) was 70.9%, the viability, T/C (second compound 1 µM, first compound 0.1 µM) was 58.8% and the viability, T/C (second compound 1 µM, first compound 0.316 µM) was 45.6%. For the same compound, the viability, T/C (second compound 1 µM, first compound 1 µM) was 6.1%, the viability, T/C (second compound 1 µM, first compound 3.16 µM) was 0.31% and the viability, T/C (second compound 1 µM, first compound 10 µM) was 0.43%. It also gave a viability, T/C (second compound 3.16 µM, first compound 0.0316 µM) of 68.3%, a viability, T/C (second compound 3.16 µM, first compound 0.1 µM) of 68.2% and a viability, T/C (second compound 3.16 µM, first compound 0.316 µM) of 50.3%. For the same compound, the viability, T/C (second compound 3.16 µM, first compound 1 µM) was 9.54%, the viability, T/C (second compound 3.16 µM, first compound 3.16 µM) was 0.51% and the viability, T/C (second compound 3.16 µM, first compound 10 µM) was 0.49%. The viability, T/C (second compound 10 µM, first compound 0.0316 µM) was 75.1%, the viability, T/C (second compound 10 µM, first compound 0.1 µM) was 80.3% and the viability, T/C (second compound 10 µM, first compound 0.316 µM) was 43.5%. It also gave a viability, T/C (second compound 10 µM, first compound 1 µM) of 10%, a viability, T/C (second compound 10 µM, first compound 3.16 µM) of 0.39% and a viability, T/C (second compound 10 µM, first compound 10 µM) of 0.49%.
